Test results taken from ChEMBL document CHEMBL1201862, “PubChem BioAssay data set” (2004).
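Briefly, cells in 96-well plates were exposed to five compound concentrations for 48 h, and endpoints were estimated by linear interpolation. GI50 is the concentration that inhibits growth by half.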 Active and inactive are the calls of the source. No stated cut-off is given here; in the data, active = GI50 up to about 1.1 µM and inactive = higher.

How the values were obtained:
Experiment in all cases: inhibition of tumour cell growth, NCI panel, 48 h
HOP-92 = tested on: HOP-92
TK-10 = tested on: TK-10
SNB-19 = tested on: SNB-19
RXF 393 = tested on: RXF 393
MOLT-4 = tested on: MOLT-4
IGROV-1 = tested on: IGROV-1
UO-31 = tested on: UO-31
A549 = tested on: A549
LXFL 529 = tested on: LXFL 529
SNB-75 = tested on: SNB-75
KM12 = tested on: KM12
CAKI-1 = tested on: CAKI-1
XF498 = tested on: XF498
SNB-78 = tested on: SNB-78
HCT-116 = tested on: HCT-116
SK-OV-3 = tested on: SK-OV-3
SW-620 = tested on: SW-620
RXF 631 = tested on: RXF 631
OVCAR-8 = tested on: OVCAR-8
LOX IMVI = tested on: LOX IMVI
SR = tested on: SR
RPMI-8226 = tested on: RPMI-8226
UACC-257 = tested on: UACC-257
NCI-H460 = tested on: NCI-H460
SF-295 = tested on: SF-295
NCI-H23 = tested on: NCI-H23
OVCAR-3 = tested on: OVCAR-3
SK-MEL-5 = tested on: SK-MEL-5
CCRF-CEM = tested on: CCRF-CEM
ACHN = tested on: ACHN
HCT-15 = tested on: HCT-15
OVCAR-4 = tested on: OVCAR-4
HL-60 = tested on: HL-60
KM-20L2 = tested on: KM-20L2
786-0 = tested on: 786-0
K562 = tested on: K562
NCI-H226 = tested on: NCI-H226
SF-539 = tested on: SF-539
HOP-62 = tested on: HOP-62
SN12C = tested on: SN12C
SF-268 = tested on: SF-268
A498 = tested on: A498
NCI-H522 = tested on: NCI-H522
HT-29 = tested on: HT-29
M14 = tested on: M14
M19-MEL = tested on: M19-MEL
COLO 205 = tested on: COLO 205
EKVX = tested on: EKVX
UACC-62 = tested on: UACC-62
SK-MEL-2 = tested on: SK-MEL-2
SK-MEL-28 = tested on: SK-MEL-28
OVCAR-5 = tested on: OVCAR-5
DMS-273 = tested on: DMS-273
U-251 = tested on: U-251
DLD-1 = tested on: DLD-1
HCC 2998 = tested on: HCC 2998
Malme-3M = tested on: Malme-3M
MDA-MB-231 = tested on: MDA-MB-231
NCI/ADR-RES = tested on: NCI/ADR-RES
HOP-18 = tested on: HOP-18
PC-3 = tested on: PC-3
DU-145 = tested on: DU-145
MCF7 = tested on: MCF7
MDA-N = tested on: MDA-N
MDA-MB-435 = tested on: MDA-MB-435
T47D = tested on: T47D
DMS-114 = tested on: DMS-114
Hs-578T = tested on: Hs-578T

Compound: CCC(=O)C(C(=O)CC)c1c(OC(=O)c2ccccc2)ccc(O)c1C(=O)OC
- GI50 (HOP-92): > 100 µM (inactive)
- GI50 (TK-10): > 100 µM (inactive)
- GI50 (SNB-19): > 100 µM (inactive)
- GI50 (RXF 393): > 100 µM (inactive)
- GI50 (MOLT-4): 72.3 µM (inactive)
- GI50 (IGROV-1): > 100 µM (inactive)
- GI50 (UO-31): > 100 µM (inactive)
- GI50 (A549): > 100 µM (inactive)
- GI50 (LXFL 529): > 100 µM (inactive)
- GI50 (SNB-75): 90.8 µM (inactive)
- GI50 (KM12): > 100 µM (inactive)
- GI50 (CAKI-1): > 100 µM (inactive)
- GI50 (XF498): > 100 µM (inactive)
- GI50 (SNB-78): > 100 µM (inactive)
- GI50 (HCT-116): > 100 µM (inactive)
- GI50 (SK-OV-3): > 100 µM (inactive)
- GI50 (SW-620): > 100 µM (inactive)
- GI50 (RXF 631): > 100 µM (inactive)
- GI50 (OVCAR-8): > 100 µM (inactive)
- GI50 (LOX IMVI): > 100 µM (inactive)
- GI50 (SR): 89.9 µM (inactive)
- GI50 (RPMI-8226): > 100 µM (inactive)
- GI50 (UACC-257): > 100 µM (inactive)
- GI50 (NCI-H460): > 100 µM (inactive)
- GI50 (SF-295): > 100 µM (inactive)
- GI50 (NCI-H23): > 100 µM (inactive)
- GI50 (OVCAR-3): > 100 µM (inactive)
- GI50 (SK-MEL-5): > 100 µM (inactive)
- GI50 (CCRF-CEM): > 100 µM (inactive)
- GI50 (ACHN): > 100 µM (inactive)
- GI50 (HCT-15): > 100 µM
- GI50 (OVCAR-4): > 100 µM (inactive)
- GI50 (HL-60): > 100 µM (inactive)
- GI50 (KM-20L2): > 100 µM (inactive)
- GI50 (786-0): > 100 µM (inactive)
- GI50 (K562): > 100 µM (inactive)
- GI50 (NCI-H226): > 100 µM (inactive)
- GI50 (SF-539): > 100 µM (inactive)
- GI50 (HOP-62): > 100 µM (inactive)
- GI50 (SN12C): > 100 µM (inactive)
- GI50 (SF-268): > 100 µM (inactive)
- GI50 (A498): > 100 µM (inactive)
- GI50 (NCI-H522): > 100 µM (inactive)
- GI50 (HT-29): > 100 µM (inactive)
- GI50 (M14): > 100 µM (inactive)
- GI50 (M19-MEL): > 100 µM (inactive)
- GI50 (COLO 205): > 100 µM (inactive)
- GI50 (EKVX): > 100 µM (inactive)
- GI50 (UACC-62): > 100 µM (inactive)
- GI50 (SK-MEL-2): > 100 µM (inactive)
- GI50 (SK-MEL-28): > 100 µM (inactive)
- GI50 (OVCAR-5): > 100 µM (inactive)
- GI50 (DMS-273): > 100 µM (inactive)
- GI50 (U-251): > 100 µM (inactive)

Compound: CC1=C(C(=O)Nc2ccccc2)C(c2ccc(N(C)C)cc2)C(C(=O)Nc2ccccc2)=C(C)N1
- GI50 (DLD-1): 8.36 µM (inactive)
- GI50 (HOP-92): 65.9 µM (inactive)
- GI50 (HCC 2998): 2.86 µM (inactive)
- GI50 (TK-10): 39.4 µM (inactive)
- GI50 (SNB-19): 64.3 µM (inactive)
- GI50 (Malme-3M): 4.79 µM (inactive)
- GI50 (RXF 393): > 85.1 µM (inactive)
- GI50 (MOLT-4): 2.89 µM (inactive)
- GI50 (IGROV-1): 16.9 µM (inactive)
- GI50 (UO-31): 2.37 µM (inactive)
- GI50 (A549): 3.31 µM (inactive)
- GI50 (LXFL 529): 0.175 µM (active)
- GI50 (SNB-75): 35.6 µM (inactive)
- GI50 (KM12): 0.964 µM (active)
- GI50 (CAKI-1): 25.3 µM (inactive)
- GI50 (MDA-MB-231): 29.1 µM (inactive)
- GI50 (XF498): > 100 µM (inactive)
- GI50 (SNB-78): > 37.1 µM (inactive)
- GI50 (HCT-116): 4.72 µM (inactive)
- GI50 (SK-OV-3): 59.2 µM (inactive)
- GI50 (SW-620): 13.7 µM (inactive)
- GI50 (NCI/ADR-RES): > 100 µM (inactive)
- GI50 (OVCAR-8): 11.9 µM (inactive)
- GI50 (LOX IMVI): 2.82 µM (inactive)
- GI50 (HOP-18): > 100 µM (inactive)
- GI50 (PC-3): 4.08 µM (inactive)
- GI50 (DU-145): 3.17 µM (inactive)
- GI50 (SR): 11.1 µM (inactive)
- GI50 (MCF7): 10.3 µM (inactive)
- GI50 (RPMI-8226): 3.13 µM (inactive)
- GI50 (UACC-257): 8.32 µM (inactive)
- GI50 (NCI-H460): 1.43 µM (inactive)
- GI50 (SF-295): 3.54 µM (inactive)
- GI50 (NCI-H23): 24.9 µM (inactive)
- GI50 (OVCAR-3): 8.69 µM (inactive)
- GI50 (SK-MEL-5): 1.1 µM (active)
- GI50 (CCRF-CEM): 3.94 µM (inactive)
- GI50 (ACHN): 0.494 µM (active)
- GI50 (HCT-15): 0.493 µM
- GI50 (OVCAR-4): 50.8 µM (inactive)
- GI50 (HL-60): 5.3 µM (inactive)
- GI50 (MDA-N): 1.75 µM (inactive)
- GI50 (KM-20L2): 0.439 µM (active)
- GI50 (786-0): 29.6 µM (inactive)
- GI50 (K562): 1.09 µM (active)
- GI50 (NCI-H226): > 89.5 µM (inactive)
- GI50 (SF-539): 9.59 µM (inactive)
- GI50 (HOP-62): 5 µM (inactive)
- GI50 (SN12C): 46.3 µM (inactive)
- GI50 (SF-268): 9.31 µM (inactive)
- GI50 (A498): > 100 µM (inactive)
- GI50 (NCI-H522): 6.64 µM (inactive)
- GI50 (HT-29): 3.72 µM (inactive)
- GI50 (M14): 1.5 µM (inactive)
- GI50 (MDA-MB-435): 0.804 µM (active)
- GI50 (M19-MEL): 0.685 µM (active)
- GI50 (COLO 205): 1.41 µM (inactive)
- GI50 (EKVX): 62.8 µM (inactive)
- GI50 (UACC-62): 0.2 µM (active)
- GI50 (SK-MEL-2): > 70.1 µM (inactive)
- GI50 (T47D): 3.33 µM (inactive)
- GI50 (SK-MEL-28): 12.4 µM (inactive)
- GI50 (DMS-114): 0.211 µM (active)
- GI50 (OVCAR-5): 18.6 µM (inactive)
- GI50 (DMS-273): 0.428 µM (active)
- GI50 (U-251): 15.9 µM (inactive)
- GI50 (Hs-578T): > 100 µM (inactive)
